Read-outs that look alike come from different tables or passages of the source.

Data set [1] relates to ulcerogenic effects induced by indomethacin (stomach ulcers). It is filed as in vivo, rat. The note with it: indomethacin 20 mg/kg s.c., 5 h.
In a further data set the test system is gastrointestinal effects. As to conditions: Physician's Desk Reference 1972, p. 964; cited from earlier work.
The test system of data set [2] is basal gastric acid secretion. Description: Inhibition of total acid output (basal gastric acid secretion) in the acute gastric fistula rat. It is filed as in vivo, female Sprague-Dawley rats. As to conditions: Rattus norvegicus, intraduodenal.
The next data set has as its system ligated intestine. More on the design: species or system female Sprague-Dawley rats. The note with it: rat, in vivo, 10 mg/kg. The protocol:
It is therefore unexpected and novel that in general, the compounds of this invention are not diarrheagenic at dose levels at which they are effective gastric acid secretion inhibitors. One measure of diarrheagenic potential is the ileal ligated rat assay, a description of which follows directly.
Female Sprague-Dawley rats (Charles River Laboratories) weighing less than 100 grams are fasted in individual cages for at least 18 hours. They are then anesthetized with ether and a midline incision made. The duodenum is exposed and the test drug or control injected intraduodenally. The ilcocecal junction is then exposed and the terminal ileum is ligated using 3-0 silk thread just proximal to the junction. The incision is then closed using wound clips. Rats are placed back in individual cages without food or water for four hours. After this time the rats were sacrificed, the stomach and small intestine carefully removed, and cleaned of adherent mesentery. The removed portion of gut is then weighed to the nearest 0.1 gram. Compounds inducing diarrhea such as prostaglandins, cholera toxin, etc. produce an increase in weight of the ligated intestine. This increase from control is noted in Table IV, as change in weight in grams after standardizing weights of gut to grams/100 gram rat. An increase in intestinal weight of about 1.0 g. is considered indicative of diarrheagenic potential.
When measured by this assay at effective gastric acid secretion inhibiting doses, as determined by the acute rat fistula assay representative novel compounds of Table IV are non-diarrheagenic.

Setting [3] is: 1 h, 60 min, read-out: % Inhibition of total acid output, after 60 minutes (A).
Setting [4] is: 2 h, 120 min, read-out: % Inhibition of total acid output, after 120 minutes (B).

In the case of `COc1ccc2c(c1)c(CC(=O)O)c(C)n2C(=O)c1ccc(Cl)cc1` [indomethacin, reference compound], the “Ulcer score, control animals treated with indomethacin but not test compound” value in data set [1] was 2.5-3.5. Moreover, the Gastrointestinal reactions entry in the data set on gastrointestinal effects is “occurrence and, at times, severity of gastrointestinal reactions”.

On to `CCCCC[C@@H](/C=C/[C@H]1[C@H](CO)C[C@@H](O)[C@@H]1C/C=C\CCCC(=O)OC)OC(C)=O` [l-11α-hydroxymethyl-15-O--acetyl-11-deoxyprostaglandin-F2 β methyl ester], for which the values for the inhibition in vivo at 5 mg/kg in data set [2] (setting [3]) and in data set [2] (setting [4]) were 47% and 33%, respectively. In the data set on ligated intestine, the “Increase in weight of intestine” value is given as “+0.15 g”.

Turning to `C=C[C@@H]1C[C@H](O)[C@H](C/C=C\CCCC(=O)O)[C@H]1/C=C/[C@@H](O)CCCCC` [l-11α-vinyl-11-deoxyprostaglandin-F2 α, 11-deoxy-11α-vinylprostaglandin F2α], in data set [2] (setting [3]), the inhibition in vivo at 2.5 mg/kg turned out to be 15% and the inhibition in vivo at 5 mg/kg came out at 53%. Also, in data set [2] (setting [4]), the inhibition in vivo at 2.5 mg/kg was 37% and the inhibition in vivo at 5 mg/kg came out at 67%. Besides, the “Increase in weight of intestine” value in the data set on ligated intestine is -0.36 g.

Values taken from patent US4444691A, “11-Cyano-prostaglandins of the F-series” (American Cyanamid Company, priority 1982, dated 1984).
